Several values for one entry are separate records, joined by “and”; a condition that tells them apart may be missing. Equal values may be shown once. Read-outs that look alike come from different tables or passages of the source.
Assays:
[1] = Tissue distribution after single oral administration in rats; format: in vivo, rat; conditions: 100 mg/kg PO, male Wistar rats; for Cmax / Tmax / AUC / Kp / AUC(0-inf) / half-life: rat, Estimated Value; for AUC: read-out: AUC24; for Kp: read-out: AUC24/AUC24 (plasma); for half-life: read-out: Terminal t1/2 (converted)
Experimental: (§1) Experiments were performed at ChemPartner, Shanghai, China and approved by Institutional Ethics Committee (IEC) of ChemPartner. Male Wistar 10–12 weeks old rats with body weights of 185–220 g and male New Zealand rabbits with body weights of 2.0–2.3 kg were purchased from Shanghai SLAC Laboratory Animal Co., Ltd. MT-SYK-03 was administered to the three groups of rats (six rats per group) via oral gavage at 10 mL/kg concentration, and in rabbits 5 mL/kg concentration. Blood samples were kept on ice and centrifuged (2000 g, 4 ℃, 5 min) within 15 min post sampling.

[2] = test system: THP-1 cells; test: Inhibition of TNF-α secretion by activated monocytes; format: cell-based; conditions: Homo sapiens, differentiated monocytes, IgG-coated plates, read-out: IC50, inhibition of TNF-α release
Experimental: The assay was performed at A. N. Bakh Institute of Biochemistry, Russia. Human leukemia monocytic THP-1 cells obtained from Russian collection cell cultures (RCCC) were cultured in 5% CO2 humidified atmosphere at 37 °C in RPMI 1640 supplemented with 100 U mL^–1 penicillin/streptomycin, 2% FBS and 20 μM β-mercaptoethanol. THP-1 cells were incubated in 5% CO2 atmosphere at 37 °C in RPMI 1640 medium. To induce differentiation the cells were treated with IFN-g for six days. 96-well culture plate coated with combined human IgG were incubated during night at 4 °C (or for 1 h at 37 °C). To evaluate baseline cell simulation F(ab’)2 was used as a negative control in part of wells. Unbounded antibodies were removed with sodium-phosphate buffer. A solution of test compound (MT-SYK-03 or) and differentiated cells in cultivating medium were added in each well. […] Each concentration was tested in triplicate; the experiment was replicated twice. For dose–response curve see Fig. S3.

[3] = Pharmacokinetics after single oral administration to rabbits; format: in vivo, rabbit; conditions: single oral 50 mg/kg
Experimental: as §1

[4] = molecular target: SYK (Homo sapiens, UniProt P43405); test: SYK inhibition radiometric assay; format: biochemical; set-up: 6xHis; GST; purchased EMD Millipore Corporation (UK), assay service; host or cells: Sf21
Experimental: Radiometric assay was performed at EMD Millipore Corporation (UK) by measuring the extent of substrate phosphorylation by 6xHis-SYK (expressed in Sf21 cells) using the standard protocol.

[5] = male, New Zealand, rabbit, plasma

## COc1cc(Nc2ncnc(Nc3cc4c(cn3)NC(=O)C(C)(C)O4)n2)cc(OC)c1OC [MT-SYK-03]
[1]; prostate, 24 h, individual animals, 100 mg/kg
  Prostate concentration: BQL
[1]; bone
  Cmax: 708 ng/mL
  Tmax: 8 h
  AUC: 9680 ng·h/mL
  Kp: 2.5
[1]; joint
  Cmax: 663 ng/mL
  Tmax: 8 h
  AUC: 9650 ng·h/mL
  Kp: 2.49
[1]; kidney
  AUC(0-inf): 18300 ng·h/mL
  Cmax: 2800 ng/mL
  Tmax: 2 h
  AUC: 18100 ng·h/mL
  Kp: 4.68
  half-life: 3.38 h
[1]; liver
  AUC(0-inf): 32400 ng·h/mL
  Cmax: 5250 ng/mL
  Tmax: 2 h
  AUC: 32100 ng·h/mL
  Kp: 8.3
  half-life: 3.28 h
[1]; muscle
  AUC(0-inf): 3150 ng·h/mL
  Cmax: 436 ng/mL
  Tmax: 2 h
  AUC: 3120 ng·h/mL
  Kp: 0.805
  half-life: 3.7 h
[1]; prostate
  AUC(0-inf): 8080 ng·h/mL
  Cmax: 1260 ng/mL
  Tmax: 2 h
  AUC: 7960 ng·h/mL
  Kp: 2.05
  half-life: 3.89 h
[1]; spleen
  AUC(0-inf): 12200 ng·h/mL
  Cmax: 1910 ng/mL
  Tmax: 2 h
  AUC: 12000 ng·h/mL
  Kp: 3.1
  half-life: 3.81 h
[1]; spleen, 2 h, individual animals, 100 mg/kg
  Spleen concentration: 1420 ng/mL and 2260 ng/mL
[1]; spleen, 8 h, individual animals, 100 mg/kg
  Spleen concentration: 726 ng/mL and 129 ng/mL and 268 ng/mL
[1]; spleen, 24 h, individual animals, 100 mg/kg
  Spleen concentration: BQL
[2]
  IC50: 480 nM
[3]; [5]
  AUC(0-inf): 121000 ng·h/mL
  Cmax: 8570 ng/mL and 14.1 µM
  Tmax: 6 ± 2.19 h
  k el: 2.67e-05 s⁻¹
[3]; male, New Zealand, rabbit, plasma, read-out: AUC48
  AUC: 119000 ng·h/mL
[3]
  MRT24: 9.2 ± 0.66 h
  τ1/2: 7.41 ± 1.32 h
[4]
  IC50: 40 ± 4 nM

From publication PMC8632988, “Inhibition of SYK and cSrc kinases can protect bone and cartilage in preclinical models of osteoarthritis and rheumatoid arthritis” (Scientific Reports, 2021)
